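Each compound was tested at five concentrations against cells in 96-well plates for 48 hours. TGI: concentration producing complete growth inhibition.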

Here are results for 15 molecules from PubChem BioAssay (NCI).

What all share (experiment): DTP human tumour cell line panel, 48 h
Experiment [1] concerns KM12 colon.
The test system of experiment [2] is SN12C renal.
The test system of experiment [3] is MOLT-4 leukemia.
The test system of experiment [4] is PC-3 prostate.
Experiment [5] relates to SF-295 CNS.
For experiment [6], the system named is K-562 leukemia.
The subject of experiment [7] is LOX IMVI melanoma.
The subject of experiment [8] is SK-MEL-28 melanoma.
For experiment [9], the system named is UACC-62 melanoma.
The subject of experiment [10] is MALME-3M melanoma.
In experiment [11] the test system is COLO 205 colon.
For experiment [12], the system named is M14 melanoma.
The subject of experiment [13] is NCI-H226 lung.
Experiment [14] concerns UACC-257 melanoma.
The test system of experiment [15] is OVCAR-8 ovarian.
Experiment [16] deals with NCI/ADR-RES ovarian.
Experiment [17] deals with HL-60(TB) leukemia.
Experiment [18] concerns A498 renal.
In experiment [19] the test system is U251 CNS.

`C=C1CCCC2[C@](C)(CC3=C(Cl)C(=O)C=C(OC)C3=O)C(C)CC[C@]12C` (some centres not stated): the TGI in experiment [1] amounted to 8.14 µM; in [2] it was 12.5 µM; in experiment [3], 6.99 µM; in [4], 6.64 µM; in [5], 14 µM; in experiment [6] it was 13.1 µM. Moreover, the TGI in [7] was determined as 4.23 µM; in experiment [8] it was 17 µM; in experiment [9], 12.7 µM; in experiment [10], 16.3 µM; in [11], 9.76 µM; in experiment [12], 10.3 µM. Besides, the TGI in [13] was 14.7 µM; in experiment [14], 13.6 µM; in [15] it was 9.78 µM; in [16] it was 33.2 µM; in experiment [17] it was 10.3 µM; in experiment [18], 16.2 µM. The molecule further had a TGI in experiment [19] of 11.2 µM.

As for `O=C(c1cc2ccccc2[nH]1)N1C2CCC1CN(CCOC(c1ccc(F)cc1)c1ccc(F)cc1)CC2` (configuration not stated), the concentration for total growth inhibition (TGI) in experiment [1], in [2], in experiment [3], in [4], in [5] and in experiment [6] was over 100 µM in each case. Besides, the TGI in experiment [7], in experiment [8], in [9], in experiment [10], in experiment [11] and in [12] was over 100 µM throughout. Besides, the total growth inhibition concentration (TGI) in experiment [13], in experiment [14], in [15], in experiment [16], in experiment [17] and in experiment [18] was over 100 µM in each case. In [19], the TGI is over 100 µM.

Consider `CCCCCCCCCCCCCCCCCCNc1ccn(C2OC(COP(=O)(O)OCC3OC(n4cc(C)c(=O)[nH]c4=O)CC3F)C(O)C2O)c(=O)n1` (configuration not stated), for which the total growth inhibition concentration (TGI) in experiment [1] amounted to 14.3 µM; in experiment [2], 39.7 µM; in experiment [3], 15.4 µM; in experiment [4], 5.38 µM; in experiment [5] it was 41.9 µM; in experiment [6], 42.5 µM. Also, the TGI in [7] worked out at 14.9 µM; in experiment [8], 17.6 µM; in experiment [9], 12.6 µM; in experiment [10] it was 40.9 µM; in [11], 9.53 µM; in experiment [12] it was 30.9 µM. The concentration for total growth inhibition (TGI) was 59.5 µM in [13]; 27.8 µM in [14]; 29.3 µM in [15]; 45.9 µM in experiment [16]; 19.3 µM in [17]; over 60.2 µM in experiment [18]. Also, the total growth inhibition concentration (TGI) in experiment [19] was 15 µM.

On to `CCCC(=O)Nc1cc(/C=C/C(=O)N2CC(CCl)c3c2cc(OCc2ccccc2)c2[nH]cc(C)c32)n(C)c1` (configuration not stated), for which the TGI in experiment [1] was 0.602 µM; in experiment [2], over 25 µM; in experiment [3], 0.61 µM; in experiment [4], over 13.1 µM; in [5], 0.334 µM; in experiment [6] it was 0.904 µM. The total growth inhibition concentration (TGI) turned out to be 6.71 µM in experiment [7]; 1.54 µM in experiment [8]; 0.0934 µM in [9]; 0.353 µM in experiment [10]; 1.22 µM in experiment [11]; 0.941 µM in experiment [13]. For the same molecule, the total growth inhibition concentration (TGI) in experiment [14] was 0.868 µM; in [15], 0.202 µM; in experiment [16] it was 0.182 µM; in [17], 0.26 µM; in [18], 1.14 µM; in [19], over 9.21 µM.

As to `Cc1ccc(S(=O)(=O)CN2C(=O)C(c3ccccc3)(c3ccccc3)C23OC(c2ccc(Cl)cc2)=CC3=O)cc1` (configuration not stated), the TGI in experiment [1], in [2], in [3], in experiment [4], in experiment [5] and in experiment [6] was over 10 µM in each case. Also, the total growth inhibition concentration (TGI) in experiment [7], in experiment [8], in experiment [9], in experiment [10], in experiment [11] and in experiment [12] was over 10 µM throughout. Also, the TGI in experiment [13], in [14], in [15], in experiment [16], in experiment [17] and in experiment [18] was over 10 µM throughout. The molecule further registered a TGI in [19] of over 10 µM.

Regarding `O=[N+]([O-])c1ccc(-c2cc(O)c3nc4ccccc4n3c2)cc1`, the concentration for total growth inhibition (TGI) in experiment [1], in [2], in experiment [3], in experiment [4], in [5] and in experiment [6] was over 100 µM throughout. Besides, the TGI in experiment [7] is over 100 µM; in [8], over 100 µM; in [9], over 31.6 µM; in experiment [10], over 100 µM; in experiment [11], over 100 µM; in [12], over 100 µM. Also, the total growth inhibition concentration (TGI) in experiment [13], in [14], in experiment [15], in experiment [16], in [17] and in [18] was over 100 µM throughout. The molecule also had a total growth inhibition concentration (TGI) in experiment [19] of over 100 µM.

Regarding `CCCCNc1nc2ccccc2c2c1ncn2CC(C)C`, the concentration for total growth inhibition (TGI) in experiment [1], in experiment [2], in [3], in experiment [4], in experiment [5] and in experiment [6] was over 100 µM in each case. Also, the TGI in experiment [7], in experiment [8], in experiment [9], in [10], in experiment [11] and in experiment [12] was over 100 µM in each case. Further, the TGI in [13], in experiment [14], in [15], in experiment [16], in [17] and in [18] was over 100 µM each time. This molecule also yielded a TGI in experiment [19] of over 100 µM.

Turning to `Oc1ccc2c(c1)CCc1c-2n(CCN2CCOCC2)c2ccc(O)cc12`, the TGI in experiment [1] is 52.9 µM; in experiment [2], over 100 µM; in experiment [3], over 100 µM; in experiment [4], over 100 µM; in experiment [5] it was over 100 µM; in experiment [6] it was over 100 µM. Besides, the TGI in experiment [7] was over 100 µM; in [8], over 100 µM; in experiment [9], 55.5 µM; in experiment [10], 75.6 µM; in [11], over 100 µM; in experiment [12], over 100 µM. Moreover, the total growth inhibition concentration (TGI) in experiment [13] was over 100 µM; in experiment [14], over 100 µM; in experiment [15], 57.1 µM; in experiment [16], 48.3 µM; in experiment [17], over 100 µM; in experiment [18] it was 39.6 µM. For the same molecule, the TGI in [19] is over 100 µM.

Turning to `CC(=O)OC(CN1CCN(c2ccccn2)CC1)Cn1sc2nc(C)cc(C)c2c1=O` (configuration not stated), the TGI in [1] was 49 µM; in [2], 37.2 µM; in [3] it was over 100 µM; in experiment [4], 31.3 µM; in [5] it was over 100 µM; in experiment [6], 94 µM. For the same molecule, the TGI in [7] was 47.4 µM; in experiment [8], 42.2 µM; in experiment [9], 30 µM; in [10] it was 32.6 µM; in experiment [11] it was 31.2 µM; in [12], 31.4 µM. Further, the TGI in experiment [13] is over 100 µM; in [14] it was 32 µM; in experiment [15], 73.9 µM; in experiment [16], 67.1 µM; in [17], 55.5 µM; in [18], 32.2 µM. The molecule also showed a TGI in experiment [19] of 32.1 µM.

On to `S=C(NNC1=NCCCCN1)Nc1ccc(Cl)cc1`, for which the TGI in experiment [1] is over 100 µM; in [3] it was 47.1 µM; in experiment [4] it was 62.8 µM; in experiment [5] it was 57.5 µM; in [6], over 100 µM; in [7] it was over 100 µM. Also, the concentration for total growth inhibition (TGI) in experiment [8] was over 100 µM; in experiment [9], 18.9 µM; in [10] it was 55.7 µM; in experiment [11], 34.5 µM; in experiment [12] it was 22.1 µM; in experiment [13] it was over 100 µM. For the same molecule, the total growth inhibition concentration (TGI) in experiment [14] is 43.9 µM; in experiment [15], over 100 µM; in experiment [16], over 100 µM; in experiment [17], over 100 µM; in [18], over 100 µM; in experiment [19], over 100 µM.

Take `Oc1cc(O)c2ccc(-c3ccc(O)c(O)c3)[o+]c2c1`: the TGI in [1], in experiment [2], in experiment [3], in experiment [4], in experiment [6] and in experiment [7] was over 100 µM each time. The TGI in experiment [8], in [9], in experiment [10], in experiment [12], in [13] and in experiment [14] was over 100 µM each time. For the same molecule, the TGI in experiment [15], in experiment [16], in [17], in experiment [18] and in [19] was over 100 µM throughout.

Consider `CC(=O)N(C)c1ccc(N=CN(C)C)cc1`, for which the TGI in experiment [2], in experiment [3], in [4], in experiment [5], in experiment [6] and in experiment [7] was over 100 µM throughout. For the same molecule, the TGI in experiment [8], in experiment [9], in experiment [10], in experiment [11], in [12] and in experiment [13] was over 100 µM throughout. Moreover, the TGI in [14], in [15], in [16], in experiment [17], in [18] and in experiment [19] was over 100 µM in each case.

Take `C[Si](C)(C)C#Cc1cc(-c2nc3ccccc3s2)ccc1N`: the TGI came to 34.2 µM in experiment [1]; 30.1 µM in experiment [2]; 97.4 µM in experiment [3]; 34.2 µM in experiment [4]; 33.7 µM in experiment [5]; 70.6 µM in experiment [6]. Moreover, the TGI in [7] was determined as 34 µM; in experiment [9] it was 33.2 µM; in [10] it was 23.7 µM; in experiment [11] it was 29.5 µM; in [12], 31 µM; in experiment [13], 31.2 µM. The total growth inhibition concentration (TGI) in experiment [14] stood at 34.8 µM; in experiment [15], 32.3 µM; in experiment [16], 32.3 µM; in experiment [17], 50 µM; in experiment [18], 35 µM; in experiment [19], 37.9 µM.

As for `O=Cc1c2n(c3ccccc13)N[C@@](Cc1ccc(O)cc1)(C(=O)O)C2`, the TGI in [1], in [3], in experiment [4], in experiment [5], in experiment [6] and in experiment [7] was over 100 µM each time. The TGI in [8], in experiment [9], in [10], in [11], in experiment [12] and in experiment [13] was over 100 µM throughout. The TGI was 86.9 µM in [14]; over 100 µM in experiment [15]; over 100 µM in experiment [16]; over 100 µM in experiment [17]; over 100 µM in [18]; over 100 µM in experiment [19].

As for `O=C1NC(=S)N/C1=C\c1cc2c(=O)c3ccccc3sc2s1`, the concentration for total growth inhibition (TGI) in experiment [1] is over 100 µM; in [2], over 100 µM; in [3], 69.5 µM; in experiment [4], over 100 µM; in experiment [5], over 100 µM; in [6], over 100 µM. The TGI in experiment [7], in experiment [8], in [9], in [10], in experiment [11] and in [13] was over 100 µM in each case. In addition, the concentration for total growth inhibition (TGI) in experiment [14], in experiment [15], in experiment [16], in experiment [17], in experiment [18] and in experiment [19] was over 100 µM throughout.

For orientation: TGI means the concentration giving total growth inhibition. A higher TGI goes with lower sensitivity of the cells.
